# From article PMC5218480 (PLoS ONE, 2017)
# System: MV-4-11 cells
# Assay: Gene expression microarray analysis (Affymetrix PrimeView) and GSEA
# Assay type: cell-based, human
# Design: RFU PODN (11730768_x_at) / Fold change /veh PODN (11730768_x_at) / RFU LINC00158 (11744669_a_at) / Fold change /veh LINC00158 (11744669_a_at) / RFU DUSP10 (11751237_a_at) / Fold change /veh DUSP10 (11751237_a_at) / RFU ID3 (11757404_x_at) / Fold change /veh ID3 (11757404_x_at) / RFU PLEKHG5 (11737974_s_at) / Fold change /veh PLEKHG5 (11737974_s_at) / RFU LRRC4B (11730491_at) / Fold change /veh LRRC4B (11730491_at) / RFU GIMAP4 (11747438_a_at) / Fold change /veh GIMAP4 (11747438_a_at) / RFU KRT8 (11758183_x_at) / Fold change /veh KRT8 (11758183_x_at) / RFU CNN1 (11734310_a_at) / Fold change /veh CNN1 (11734310_a_at) / RFU VPS37D (11726825_at) / Fold change /veh VPS37D (11726825_at) / RFU C10orf10 (11716522_x_at) / Fold change /veh C10orf10 (11716522_x_at) / RFU KIR2DL2 /// KIR2DL4 /// KIR2DL5A /// KIR2DL5B /// KIR2DS1 /// KIR2DS2 /// KIR2DS3 /// KIR2DS4 /// KIR3DL3 /// KIR3DL3 /// KIR3DS1 (11738374_at) / Fold change /veh KIR2DL2 /// KIR2DL4 /// KIR2DL5A /// KIR2DL5B /// KIR2DS1 /// KIR2DS2 /// KIR2DS3 /// KIR2DS4 /// KIR3DL3 /// KIR3DL3 /// KIR3DS1 (11738374_at) / RFU C1QL1 (11718748_at) / Fold change /veh C1QL1 (11718748_at) / RFU TMPRSS4 (11747572_a_at) / Fold change /veh TMPRSS4 (11747572_a_at) / RFU HAMP (11756126_x_at) / Fold change /veh HAMP (11756126_x_at) / RFU RNFT2 (11725882_a_at) / Fold change /veh RNFT2 (11725882_a_at) / RFU NR4A2 (11747474_a_at) / Fold change /veh NR4A2 (11747474_a_at) / RFU ABCC12 (11746883_a_at) / Fold change /veh ABCC12 (11746883_a_at) / RFU TMEM136 (11760407_x_at) / Fold change /veh TMEM136 (11760407_x_at) / RFU CLDN22 /// WWC2 (11732394_at) / Fold change /veh CLDN22 /// WWC2 (11732394_at) / RFU HLA-DPB1 (11760878_x_at) / Fold change /veh HLA-DPB1 (11760878_x_at) / RFU SPINT1 (11716480_a_at) / Fold change /veh SPINT1 (11716480_a_at) / RFU GAP43 (11754022_s_at) / Fold change /veh GAP43 (11754022_s_at) / RFU A4GNT (11735810_at) / Fold change /veh A4GNT (11735810_at) / RFU PRB3 (11715151_x_at) / Fold change /veh PRB3 (11715151_x_at) / RFU TUBB4B (11761932_at) / Fold change /veh TUBB4B (11761932_at) / RFU CAPN14 (11732068_a_at) / Fold change /veh CAPN14 (11732068_a_at) / RFU TMCC2 (11721928_a_at) / Fold change /veh TMCC2 (11721928_a_at) / RFU IRGQ (11745062_a_at) / Fold change /veh IRGQ (11745062_a_at) / RFU FAM174B (11720279_a_at) / Fold change /veh FAM174B (11720279_a_at) / RFU TMPRSS4 (11748680_a_at) / Fold change /veh TMPRSS4 (11748680_a_at) / RFU FAM212B (11763350_a_at) / Fold change /veh FAM212B (11763350_a_at) / RFU PLEKHG5 (11743358_a_at) / Fold change /veh PLEKHG5 (11743358_a_at) / RFU ZSCAN30 (11745921_a_at) / Fold change /veh ZSCAN30 (11745921_a_at) / RFU CMKLR1 (11741424_a_at) / Fold change /veh CMKLR1 (11741424_a_at) / RFU LOC101060620 /// MAPK8IP1 (11723275_at) / Fold change /veh LOC101060620 /// MAPK8IP1 (11723275_at) / RFU SPTSSB (11747773_x_at) / Fold change /veh SPTSSB (11747773_x_at) / RFU PRSS12 (11739890_at) / Fold change /veh PRSS12 (11739890_at) / RFU BIN1 (11741810_x_at) / Fold change /veh BIN1 (11741810_x_at) / RFU WNT11 (11732464_a_at) / Fold change /veh WNT11 (11732464_a_at) / RFU C10orf10 (11716521_a_at) / Fold change /veh C10orf10 (11716521_a_at) / RFU C5orf56 (11738089_at) / Fold change /veh C5orf56 (11738089_at) / RFU CYB561 (11721691_x_at) / Fold change /veh CYB561 (11721691_x_at) / RFU ANKRD19P (11752326_a_at) / Fold change /veh ANKRD19P (11752326_a_at) / RFU OR2T12 /// OR2T33 /// OR2T8 (11738714_s_at) / Fold change /veh OR2T12 /// OR2T33 /// OR2T8 (11738714_s_at) / RFU VCAN (11748164_a_at) / Fold change /veh VCAN (11748164_a_at) / RFU JSRP1 (11732532_at) / Fold change /veh JSRP1 (11732532_at) / RFU KRTAP10-11 (11738290_x_at) / Fold change /veh KRTAP10-11 (11738290_x_at) / RFU MYO3A (11730013_a_at) / Fold change /veh MYO3A (11730013_a_at) / RFU EBF3 (11725865_a_at) / Fold change /veh EBF3 (11725865_a_at) / RFU CAMK2N1 (11719241_x_at) / Fold change /veh CAMK2N1 (11719241_x_at) / RFU C5orf56 (11738088_a_at) / Fold change /veh C5orf56 (11738088_a_at) / RFU OLFML3 (11715873_a_at) / Fold change /veh OLFML3 (11715873_a_at) / RFU LOC100653217 /// NTM (11731650_a_at) / Fold change /veh LOC100653217 /// NTM (11731650_a_at) / RFU MAPK11 (11762145_a_at) / Fold change /veh MAPK11 (11762145_a_at) / RFU FIZ1 (11724087_x_at) / Fold change /veh FIZ1 (11724087_x_at) / RFU OASL (11726364_x_at) / Fold change /veh OASL (11726364_x_at) / RFU SOX15 (11748057_x_at) / Fold change /veh SOX15 (11748057_x_at) / RFU CD79A (11719716_a_at) / Fold change /veh CD79A (11719716_a_at) / RFU HIST1H1D (11736915_at) / Fold change /veh HIST1H1D (11736915_at) / RFU CASKIN2 (11723855_a_at) / Fold change /veh CASKIN2 (11723855_a_at) / RFU LOC730098 (11760151_x_at) / Fold change /veh LOC730098 (11760151_x_at) / RFU OR4N2 (11742367_at) / Fold change /veh OR4N2 (11742367_at) / RFU PRRT2 (11749266_a_at) / Fold change /veh PRRT2 (11749266_a_at) / RFU SNX32 (11753110_a_at) / Fold change /veh SNX32 (11753110_a_at) / RFU CDHR5 (11726645_a_at) / Fold change /veh CDHR5 (11726645_a_at) / RFU RCAN1 (11760418_a_at) / Fold change /veh RCAN1 (11760418_a_at) / RFU FAM167A (11723789_a_at) / Fold change /veh FAM167A (11723789_a_at) / RFU FAM26E (11764081_at) / Fold change /veh FAM26E (11764081_at) / RFU ISYNA1 (11749810_s_at) / Fold change /veh ISYNA1 (11749810_s_at) / RFU ACY1 (11761880_at) / Fold change /veh ACY1 (11761880_at) / RFU 11764098_at / Fold change /veh 11764098_at / RFU SAMD14 (11745864_x_at) / Fold change /veh SAMD14 (11745864_x_at) / RFU NPB (11741838_a_at) / Fold change /veh NPB (11741838_a_at) / RFU TMPRSS6 (11731388_a_at) / Fold change /veh TMPRSS6 (11731388_a_at) / RFU KRTAP10-2 (11738614_at) / Fold change /veh KRTAP10-2 (11738614_at) / RFU ARHGAP8 /// PRR5-ARHGAP8 (11727945_x_at) / Fold change /veh ARHGAP8 /// PRR5-ARHGAP8 (11727945_x_at) / RFU KRTAP5-7 /// NADSYN1 (11734609_at) / Fold change /veh KRTAP5-7 /// NADSYN1 (11734609_at) / RFU RASL12 (11751679_a_at) / Fold change /veh RASL12 (11751679_a_at) / RFU CDKN2B (11736163_a_at) / Fold change /veh CDKN2B (11736163_a_at) / RFU PRF1 (11729649_at) / Fold change /veh PRF1 (11729649_at) / RFU, ZNF638 /// ZNF638-IT1 / Fold change vs veh, ZNF638 /// ZNF638-IT1 / RFU, PANK3 / Fold change vs veh, PANK3 / RFU, SH3YL1 / Fold change vs veh, SH3YL1 / RFU, ZEB2 / Fold change vs veh, ZEB2 / RFU, NRIP1 / Fold change vs veh, NRIP1 / RFU, PTTG1IP / Fold change vs veh, PTTG1IP / RFU, CAPN2 / Fold change vs veh, CAPN2 / RFU, MED14 / Fold change vs veh, MED14 / RFU, SNORA58 / Fold change vs veh, SNORA58 / RFU, C1orf63 / Fold change vs veh, C1orf63 / RFU, LRRFIP1 / Fold change vs veh, LRRFIP1 / RFU, NDUFAF7 / Fold change vs veh, NDUFAF7 / RFU, SLC12A2 / Fold change vs veh, SLC12A2 / RFU, IBTK / Fold change vs veh, IBTK / RFU, ESF1 / Fold change vs veh, ESF1 / Fold change vs veh, TMEM50B / RFU, TAOK1 / Fold change vs veh, TAOK1 / RFU, ACBD3 / Fold change vs veh, ACBD3 / RFU, TMA16 / Fold change vs veh, TMA16 / RFU, RWDD3 / Fold change vs veh, RWDD3 / RFU, BCAT1 / Fold change vs veh, BCAT1 / RFU, EDEM3 / Fold change vs veh, EDEM3 / RFU, TMEM33 / Fold change vs veh, TMEM33 / RFU, WDR75 / Fold change vs veh, WDR75 / RFU, AHCTF1 / Fold change vs veh, AHCTF1 / RFU, TFRC / Fold change vs veh, TFRC / RFU, ZDHHC17 / Fold change vs veh, ZDHHC17 / RFU, NOM1 / Fold change vs veh, NOM1 / RFU, ARL8B / Fold change vs veh, ARL8B / RFU, ZBTB11 / Fold change vs veh, ZBTB11 / RFU, TAMM41 / Fold change vs veh, TAMM41 / RFU, KIAA1704 /// LOC100996395 / Fold change vs veh, KIAA1704 /// LOC100996395 / RFU, ING1 / Fold change vs veh, ING1 / RFU, TRMT61B / Fold change vs veh, TRMT61B / RFU, FUBP3 / Fold change vs veh, FUBP3 / RFU, TP53 / Fold change vs veh, TP53 / RFU, TNKS2 / Fold change vs veh, TNKS2 / RFU, ZFP14 / Fold change vs veh, ZFP14 / RFU, ACTR2 / Fold change vs veh, ACTR2 / RFU, PPP3R1 / Fold change vs veh, PPP3R1 / RFU, PIK3R1 / Fold change vs veh, PIK3R1 / RFU, HNRNPA1 / Fold change vs veh, HNRNPA1 / RFU, RNF170 / Fold change vs veh, RNF170 / RFU, ZNF28 / Fold change vs veh, ZNF28 / RFU, RNGTT / Fold change vs veh, RNGTT / RFU, OGT / Fold change vs veh, OGT / RFU, BRD1 / Fold change vs veh, BRD1 / RFU, MARS / Fold change vs veh, MARS / RFU, ZNF655 / Fold change vs veh, ZNF655 / RFU, FAHD1 / Fold change vs veh, FAHD1 / RFU, BDP1 / Fold change vs veh, BDP1 / RFU, LRRCC1 / Fold change vs veh, LRRCC1 / RFU, ARID1A / Fold change vs veh, ARID1A / RFU, ZNF146 / Fold change vs veh, ZNF146 / RFU, ZNF330 / Fold change vs veh, ZNF330 / RFU, GPN3 / Fold change vs veh, GPN3 / RFU, C9orf123 / Fold change vs veh, C9orf123 / RFU, N4BP2L2 / Fold change vs veh, N4BP2L2 / RFU, ARFIP1 / Fold change vs veh, ARFIP1 / RFU, FAM179B / Fold change vs veh, FAM179B / RFU, BCL10 / Fold change vs veh, BCL10 / RFU, UHRF1BP1L / Fold change vs veh, UHRF1BP1L / RFU, BET1 / Fold change vs veh, BET1 / RFU, CNOT2 / Fold change vs veh, CNOT2 / RFU, ZNF268 / Fold change vs veh, ZNF268 / Fold change vs veh, ZNF507 / RFU, DGCR2 / Fold change vs veh, DGCR2 / RFU, WDSUB1 / Fold change vs veh, WDSUB1 / Fold change vs veh, HSP90B1 /// MIR3652 / RFU, ADSS / Fold change vs veh, ADSS / RFU, GK / Fold change vs veh, GK / RFU, ZNF148 / Fold change vs veh, ZNF148 / RFU, TAF9 / Fold change vs veh, TAF9 / RFU, SLC1A5 / Fold change vs veh, SLC1A5 / RFU, SLMO2 / Fold change vs veh, SLMO2 / RFU, ABCC4 / Fold change vs veh, ABCC4 / RFU, LOC101060439 /// RAP1B / Fold change vs veh, LOC101060439 /// RAP1B / RFU, RFX7 / Fold change vs veh, RFX7 / RFU, GTPBP10 / Fold change vs veh, GTPBP10 / RFU, CNEP1R1 / Fold change vs veh, CNEP1R1 / RFU, BIVM-ERCC5 /// ERCC5 / Fold change vs veh, BIVM-ERCC5 /// ERCC5 / RFU, ILF3 / Fold change vs veh, ILF3 / RFU 11762660_at / Fold change /veh 11762660_at / RFU VCAN (11757783_s_at) / Fold change /veh VCAN (11757783_s_at) / RFU DDX43 (11728927_at) / Fold change /veh DDX43 (11728927_at) / RFU KRT8 (11758188_x_at) / Fold change /veh KRT8 (11758188_x_at) / RFU NKD1 (11759106_at) / Fold change /veh NKD1 (11759106_at) / RFU SRD5A1 (11742802_a_at) / Fold change /veh SRD5A1 (11742802_a_at) / RFU TPSAB1 /// TPSB2 (11721975_s_at) / Fold change /veh TPSAB1 /// TPSB2 (11721975_s_at) / RFU GSTM3 (11746129_a_at) / Fold change /veh GSTM3 (11746129_a_at) / RFU IL23R (11737362_x_at) / Fold change /veh IL23R (11737362_x_at) / RFU TMEM51 (11727254_a_at) / Fold change /veh TMEM51 (11727254_a_at) / RFU PIWIL2 (11732686_x_at) / Fold change /veh PIWIL2 (11732686_x_at) / RFU ORM1 (11744905_x_at) / Fold change /veh ORM1 (11744905_x_at) / RFU CCDC152 (11743942_at) / Fold change /veh CCDC152 (11743942_at) / RFU ECM1 (11717891_a_at) / Fold change /veh ECM1 (11717891_a_at) / RFU IL23R (11748794_a_at) / Fold change /veh IL23R (11748794_a_at) / RFU TNFAIP8L3 (11732012_x_at) / Fold change /veh TNFAIP8L3 (11732012_x_at) / RFU MBOAT4 (11741988_at) / Fold change /veh MBOAT4 (11741988_at) / RFU 11764193_at / Fold change /veh 11764193_at / RFU TMEM53 (11763286_at) / Fold change /veh TMEM53 (11763286_at) / RFU MAGEB2 (11727129_at) / Fold change /veh MAGEB2 (11727129_at) / RFU TMEM200A (11744735_a_at) / Fold change /veh TMEM200A (11744735_a_at) / RFU CCDC152 (11751479_a_at) / Fold change /veh CCDC152 (11751479_a_at) / RFU FAM211A (11726209_a_at) / Fold change /veh FAM211A (11726209_a_at) / RFU RGS16 (11746705_a_at) / Fold change /veh RGS16 (11746705_a_at) / RFU VCAN (11755009_s_at) / Fold change /veh VCAN (11755009_s_at) / RFU RHOB (11743442_s_at) / Fold change /veh RHOB (11743442_s_at) / RFU RGS16 (11720943_a_at) / Fold change /veh RGS16 (11720943_a_at) / RFU RGS16 (11720944_at) / Fold change /veh RGS16 (11720944_at) / RFU, VPS4B / Fold change vs veh, VPS4B / RFU, CREB1 / Fold change vs veh, CREB1 / RFU, DNAJC13 / Fold change vs veh, DNAJC13 / RFU, GNAQ / Fold change vs veh, GNAQ / RFU, CDK5R1 / Fold change vs veh, CDK5R1 / RFU, ZRANB3 / Fold change vs veh, ZRANB3 / RFU, CUL4A / Fold change vs veh, CUL4A / RFU, CCNY / Fold change vs veh, CCNY / RFU, UFL1 / Fold change vs veh, UFL1 / RFU, COG3 / Fold change vs veh, COG3 / RFU, DIAPH2 / Fold change vs veh, DIAPH2 / RFU, SKA2 / Fold change vs veh, SKA2 / RFU, AFF3 / Fold change vs veh, AFF3 / RFU, LMF1 / Fold change vs veh, LMF1 / RFU, IPO11 / Fold change vs veh, IPO11 / RFU, DFFB / Fold change vs veh, DFFB / RFU, FOXP1 / Fold change vs veh, FOXP1 / RFU, CARD8 / Fold change vs veh, CARD8 / RFU, STRN3 / Fold change vs veh, STRN3 / RFU, ADK / Fold change vs veh, ADK / RFU, RASSF2 / Fold change vs veh, RASSF2 / RFU, WIPF1 / Fold change vs veh, WIPF1 / RFU, LARP1B / Fold change vs veh, LARP1B / RFU, RASA1 / Fold change vs veh, RASA1 / RFU, RB1 / Fold change vs veh, RB1 / RFU, PPFIA1 / Fold change vs veh, PPFIA1 / RFU, MAT2A / Fold change vs veh, MAT2A / RFU, CCT5 / Fold change vs veh, CCT5 / RFU, WDR92 / Fold change vs veh, WDR92 / RFU, CUX1 / Fold change vs veh, CUX1 / RFU, TTC7A / Fold change vs veh, TTC7A / RFU, TMEM135 / Fold change vs veh, TMEM135 / RFU, DEPTOR / Fold change vs veh, DEPTOR / RFU, CPM / Fold change vs veh, CPM / RFU, DNAJB6 / Fold change vs veh, DNAJB6 / RFU, CACNA2D3 / Fold change vs veh, CACNA2D3 / RFU, DTX4 / Fold change vs veh, DTX4 / RFU, TFCP2 / Fold change vs veh, TFCP2 / RFU, GMCL1 /// GMCL1P1 / Fold change vs veh, GMCL1 /// GMCL1P1 / RFU, AEBP2 / Fold change vs veh, AEBP2 / RFU, SNHG1 /// SNORD22 /// SNORD25 /// SNORD26 /// SNORD27 /// SNORD28 /// SNORD29 /// SNORD31 / Fold change vs veh, SNHG1 /// SNORD22 /// SNORD25 /// SNORD26 /// SNORD27 /// SNORD28 /// SNORD29 /// SNORD31 / Fold change (Aza/veh), C12orf56 (ProbeSet 11735607_a_at) / Fold change (ACY-1035/veh), C12orf56 (ProbeSet 11735607_a_at) / Fold change (Aza/veh), FGFR1OP (ProbeSet 11751329_s_at) / Fold change (ACY-1035/veh), FGFR1OP (ProbeSet 11751329_s_at) / Fold change (Aza/veh), VPS36 (ProbeSet 11739960_a_at) / Fold change (ACY-1035/veh), VPS36 (ProbeSet 11739960_a_at) / RFU SYPL1 (11715823_x_at) / Fold change /veh SYPL1 (11715823_x_at) / RFU IGFBP7 (11715501_s_at) / Fold change /veh IGFBP7 (11715501_s_at) / RFU REEP3 (11722064_at) / Fold change /veh REEP3 (11722064_at) / RFU IGLL1 (11728026_x_at) / Fold change /veh IGLL1 (11728026_x_at): dose or concentration left out as unconfirmed
# Conditions: ProbeSet 11745428_a_at; LIST D
smiles,measurement,value
Nc1ncn([C@@H]2O[C@H](CO)[C@@H](O)[C@H]2O)c(=O)n1 [azacitidine],"RFU, DFFB",92.76 RFU
